# Tests used:
# [1] = Inhibition of L-[3H]Ala uptake at Aquifex aeolicus sodium-coupled leucine transporter
# [2] = system: Aquifex aeolicus; experiment: Activity at Aquifex aeolicus sodium-coupled leucine transporter assessed as inhibition of L-[3H]Ala transport at 20 uM
# [3] = system: Aquifex aeolicus; experiment: Activity at Aquifex aeolicus sodium-coupled leucine transporter assessed as inhibition of L-[3H]Ala transport at 1 uM
# [4] = Inhibition of L-[3H]Leu uptake at Aquifex aeolicus sodium-coupled leucine transporter
# [5] = system: Aquifex aeolicus; experiment: Activity at Aquifex aeolicus sodium-coupled leucine transporter assessed as inhibition of L-[3H]Ala transport at 50 uM
# [6] = (§1) Binding affinity to Aquifex aeolicus sodium-coupled leucine transporter
# [7] = system: Aquifex aeolicus; experiment: as §1
Compound,IC50 [1] [µM],Km [2] [µM],Vmax [2] [pmol/min/mg],Km [3] [µM],Vmax [3] [pmol/min/mg],IC50 [4] [µM],Km [5] [µM],Vmax [5] [pmol/min/mg],Kd [6] [µM],kcat [7] [s⁻¹]
CN(C)CCCN1c2ccccc2CCc2ccc(Cl)cc21 [CLOMIPRAMINE],4.7,0.47,970,0.42,1480,250,0.48,770,,
CC(C)C[C@H](N)C(=O)O [LEUCINE],,,,,,,,,0.02,0.000333
